The record followed here is patent US11982671B2, “Identification of a T cell epitope of Prevotella copri that induces T cell responses in patients with rheumatoid arthritis” (priority 2016, dated 2024).

Experiment [1] has as its system PBMC from RA patients. The experiment can be described thus: IFN-γ/IL17 Double-Color ELISpot with GNS, FLNA and microbial peptides. The note with it: 24 NORA patients, single peptide 1 μM. The format is cell-based, human. The method, then:
Enzyme-linked immunospot (ELISpot) T cell assay. A detailed description of the methods for isolation and identification of HLA-DR presented peptides is given in previous publications (19, 20). In the current study, all non-redundant HLA-DR-presented peptides identified from patient RA1 were synthesized (Mimotopes, Australia) and tested for reactivity in sets of 3 (1 μM of each peptide) with the patient's PBMC using IFN-γ ELISpot assays. […] For testing in larger numbers of patients and control subjects who would have a range of HLA-DR genotypes, the original peptides identified from the patient (shown in bold) and 3 additional promiscuous peptides that were predicted to bind>16 HLA-DR molecules were synthesized and HPLC-purified in the MGH Core Facility. The sequences of the GNS peptides were as follows: 47PNVVLLLTDDQDE59 (SEQ ID NO: 13), 222FEPFFMMIATPAPH235 (SEQ ID NO: 14), 451TYACVRTMSALWNLQ465 (SEQ ID NO: 15), 504NYRLMMLQSCSGPTC518 (SEQ ID NO: 16). The sequences of the FLNA peptides were as follows: 73DGLRLIALLEVLSQKK88 (SEQ ID NO: 17), 118SIKLVSIDSKAIVDG132 (SEQ ID NO: 18), 416VEVVIQDPMGQKG428 (SEQ ID NO: 19), 2446NPAEFVVNTSNAGAG2460 (SEQ ID NO: 20).
To assess microbial sequence homology with the GNS peptide 222FEPFFMMIATPAPH235 (SEQ ID NO: 21), the following microbial peptides were tested: 231KKPFFMMVAMNPPH245 (SEQ ID NO: 22), which was derived from the arylsulfatase protein of Prevotella sp. (WP_062433009.1) and 247DVPFFMMWTTPLPH261 (SEQ ID NO: 23), derived from the N-acetylgalactosamine-6-sulfatase of Parabacteroides sp. (WP_046148720.1).
To evaluate the microbial sequence homology for the FLNA peptide 2446NPAEFVVNTSNAGAG2460 (SEQ ID NO: 24), the following microbial peptides were tested: 133QGFVVKTANAGAL146 (SEQ ID NO: 25), which was derived from an uncharacterized protein of Prevotella sp. (WP_028897633.1) and 90ANFMINVSNAGAL103 (SEQ ID NO: 26), derived from an uncharacterized protein of Butyricimonas sp. (WP_065219401.1). The RA patients' PBMC were stimulated with the pool of peptides or single peptides, and analyzed for reactivity with a human IFN-γ/IL17 Double-Color ELISpot kit (Cellular Technology Limited). All peptides (1 μM) were tested in duplicate wells, as were positive (phytohemagglutinin) and negative (no antigen) control samples. After 5 days, cells were transferred to ELISpot plates coated with IFN-γ/IL17 antibodies, and incubated overnight. Images of wells were captured using ImmunoSpot series 3B analyzer, and spots were counted using ImmunoSpot software. A positive T cell response was defined as 3 standard deviations (SD) above the mean value of healthy control subjects.

The subject of experiment [2] is PBMC from RA patients. The experiment can be described thus: IFN-γ/IL-17 ELISpot T cell assay with Pc-p27 peptides. The class given is cell-based, human. An excerpt:
Enzyme-linked immunospot (ELISpot) T cell assay. A detailed description of the methods for isolation and identification of HLA-DR presented peptides is given in Seward et al., 2011. In initial experiments in this study, one microbial peptide (^2KRIILILTVLLAMLGQVAY^20)(SEQ ID NO: 6) derived from a 27 kDa P. copri protein (WP_022121928.1) was identified from the PBMC of one RA patient. This P. copri peptide and 2 additional peptides from the same protein, which were predicted to be promiscuous T cell epitopes (^52DYRGYWTMRYQFDSATVS^69 (SEQ ID NO: 7), ^118EKINSLPTSSTGI^130 (SEQ ID NO: 8)), were synthesized and HPLC-purified in the Core Proteomics Laboratory at MGH. […] Cells were then transferred to Dual Color ELISpot plates coated with IFN-γ/IL17 antibodies (Cellular Technology Limited), and incubated overnight at 37° C. Images of wells were captured using ImmunoSpot series 3B analyzer, and spots were counted using ImmunoSpot software. A positive T cell response was defined as 3 standard deviations (SD) above the mean value of healthy subjects.

In experiment [3] the test system is serum IgG and IgA autoantibodies. The experiment can be described thus: ELISA for serum IgG and IgA anti-GNS and anti-FLNA autoantibodies. The settings on record: for patients with IgA antibody responses >3 SD above HC: 101 RA patients; for patients with IgG antibody responses >3 SD above HC: 101 RA patients (NORA and CRA), serum diluted 50-fold; for IgG antibody responses to citrullinated versus uncitrullinated protein: 46 RA patients, protein citrullinated in vitro with rhPAD4. The format is binding, human. As to the method: ELISA for serum IgG and IgA anti-GNS and anti-FLNA autoantibodies. ELISA plates were coated with 0.5 μg/ml of recombinant human N-acetylglucosamine-6-sulfatase (Novoprotein, Summit, N.J.) or filamin A (Novusbio, Littleton, Colo.) overnight at 4° C. Subsequent incubations and washes were performed at room temperature. After washing with phosphate buffered saline with 0.05% Tween-20 (PBST), the plates were blocked with blocking buffer (5% nonfat dry milk in PBST) for one hour. Afterwards, 100 μl of each patient's serum sample (diluted 50-fold) was added in duplicate wells for 1.5 hours, followed by horseradish-peroxidase (HRP)-conjugated goat anti-human IgG (sc-2453, Santa Cruz Biotech) or HRP-conjugated goat anti-human IgA (Bio-Rad, Hercules, Calif.), and then TMB substrate (BD, San Diego, Calif.). For inter-plate standardization, 2 control samples were included with each assay.
In vitro citrullination assay. Human recombinant N-acetylglucosamine-6-sulfatase (2 μg) or filamin A (2 μg) were incubated with rhPAD-4 (400 ng), generously provided by Maximilian Koenig from the laboratory of Felipe Andrade, in 1M Tris (pH 7.6) in presence of 200 mM CaCl2. A negative control reaction was performed substituting 200 mM CaCl2 with 200 mM EDTA. Incubation was performed at 37° C. for 3 hours. Protein citrullination was determined by anti-modified citrulline immunoblotting, according to the recommendations of the manufacturer (Millipore).

As for “ANFMINVSNAGAL (Butyricimonas sp. Marseille-P2440) [Butyricimonas peptide, peptide from an uncharacterized protein of Butyricimonas sp]”, in experiment [1], the “patients with T cell reactivity >3SD above the mean values in HC” value (from here on “patients … in HC”) amounted to 29%.
Same read-out and setting: the result for “DVPFFMMWTTPLPH (Parabacteroides sp. HGS0025) [Parabacteroides peptide, peptide from N-acetylgalactosamine-6-sulfatase of Parabacteroides sp]” reads 25%; that for “FEPFFMMIATPAPH (listed as Homo sapiens) [GNS peptide, HLA-DR-presented self peptide from N-acetylglucosamine-6-sulfatase]”, 33%.
As for “KKPFFMMVAMNPPH (Prevotella sp. DNF00663) [Prevotella peptide, peptide from arylsulfatase protein of Prevotella sp., homologous to the GNS peptide]”, the “patients … in HC” value in experiment [1] worked out at 38%.
Take “KRIILILTVLLAMLGQVAY (listed as Prevotella copri) [Pc-p27 peptide 1]”: the “patients whose PBMC secreted IFN-γ >3 SD above the mean value of HC” value in experiment [2] (40 RA patients (39 NORA + RA1), peptide 1 μM, 5 days) came to 42%. Also, the “T cell reactivity of PBMC from Lyme arthritis patients” value in experiment [2] (LA patients, peptide 1 μM) is “lacked reactivity”. Besides, the “patients with IFN-γ response, peptide with or without citrullination” value in experiment [2] (RA patients, FIG. 1D) is listed as 44%. In experiment [2] (patient RA1 PBMC, peptide 1, 2 and 4 μM, background = no antigen), the “IFN-γ secreted by patient RA1 T cells relative to background” value is reported as more than 3 times background.
On to NPAEFVVNTSNAGAG [FLNA peptide], for which the “patients … in HC” value in experiment [1] is recorded as 38%.
On to “QGFVVKTANAGAL (Prevotella sp. HUN102) [corresponding Prevotella peptide, peptide from an uncharacterized protein of Prevotella sp., homologous to the FLNA peptide]”, for which the “patients … in HC” value in experiment [1] amounted to 42%.

B1: FLNA: recombinant human filamin A (Novusbio) (protein)
chain: GAPGPGPADASKVVAKGLGLSKAYVGQKSSFTVDCSKAGNNMLLVGVHGPRTPCEEILVKHVGSRLYSVSYLLKDKGEYTLVVKWGDEHIPGSPYRVVVP
As for B1, in experiment [3], the “patients with IgA antibody responses >3 SD above HC” value came to 15% and the “patients with IgG antibody responses >3 SD above HC” value is recorded as 27%.

B2: citrullinated FLNA: recombinant filamin A citrullinated in vitro with rhPAD-4 (protein)
chain: GAPGPGPADASKVVAKGLGLSKAYVGQKSSFTVDCSKAGNNMLLVGVHGPRTPCEEILVKHVGSRLYSVSYLLKDKGEYTLVVKWGDEHIPGSPYRVVVP
With B2, in experiment [3], the “IgG antibody responses to citrullinated versus uncitrullinated protein” value is “not significantly different”.

B3: GNS: recombinant human N-acetylglucosamine-6-sulfatase (Novoprotein) (protein)
chain: VFGVAAGTRRPNVVLLLTDDQDEVLGGMTPLKKTKALIGEMGMTFSSAYVPSALCCPSRASILTGKYPHNHHVVNNTLEGNCSSKSWQKIQEPNTFPAILRSMCGYQTFFAGKYLNEYGAPDAGGLEHVPLGWSYWYALEKNSKYYNYTLSINGKARKHGENYSVDYLTDVLANVSLDFLDYKSNFEPFFMMIATPAPHSPWTAAPQYQKAFQNVFAPRNKNFNIHGTNKHWLIRQAKTPMTNSSIQFLDNAFRKRWQTLLSVDDLVEKLVKRLEFTGELNNTYIFYTSDNGYHTGQFSLPIDKRQLYEFDIKVPLLVRGPGIKPNQTSKMLVANIDLGPTILDIAGYDLNKTQMDGMSLLPILRGASNLTWRSDVLVEYQGEGRNVTDPTCPSLSPGVSQCFPDCVCEDAYNNTYACVRTMSALWNLQYCEFDDQEVFVEVYNLTADPDQITNIAKTIDPELLGKMNYRLMMLQSCSGPTCRTPGVFDPGYRFDPRLMFSNRGSVRTRRFSKHLL
Consider B3, for which, in experiment [3], the “patients with IgA antibody responses >3 SD above HC” value was 16% and the “patients with IgG antibody responses >3 SD above HC” value was determined as 32%. In experiment [3] (106 patients with LA, SpA or CTD, 50 healthy control subjects), the “positive IgG antibody responses in patients with other diseases and healthy controls” value was “none”.

B4: citrullinated GNS: recombinant GNS citrullinated in vitro with rhPAD-4 (protein)
chain: VFGVAAGTRRPNVVLLLTDDQDEVLGGMTPLKKTKALIGEMGMTFSSAYVPSALCCPSRASILTGKYPHNHHVVNNTLEGNCSSKSWQKIQEPNTFPAILRSMCGYQTFFAGKYLNEYGAPDAGGLEHVPLGWSYWYALEKNSKYYNYTLSINGKARKHGENYSVDYLTDVLANVSLDFLDYKSNFEPFFMMIATPAPHSPWTAAPQYQKAFQNVFAPRNKNFNIHGTNKHWLIRQAKTPMTNSSIQFLDNAFRKRWQTLLSVDDLVEKLVKRLEFTGELNNTYIFYTSDNGYHTGQFSLPIDKRQLYEFDIKVPLLVRGPGIKPNQTSKMLVANIDLGPTILDIAGYDLNKTQMDGMSLLPILRGASNLTWRSDVLVEYQGEGRNVTDPTCPSLSPGVSQCFPDCVCEDAYNNTYACVRTMSALWNLQYCEFDDQEVFVEVYNLTADPDQITNIAKTIDPELLGKMNYRLMMLQSCSGPTCRTPGVFDPGYRFDPRLMFSNRGSVRTRRFSKHLL
Take B4: the “IgG antibody responses to citrullinated versus uncitrullinated protein” value in experiment [3] is listed as “higher”.
